Source: article PMC10154080 (Investigational new drugs, 2022)
Several values for one entry are separate records, joined by “and”; a condition that tells them apart may be missing. Equal entries are not always repeated. Where two headings read alike, the source gives them in different places.

Legend:
[1] = cited from earlier work
[2] = In vitro metabolism in human liver microsomes
[3] = In vitro metabolism in rat liver microsomes; details: rat (IGS SD) liver microsomes
[4] = Intracerebral microdialysis and plasma PK after i.p. administration in rats; type: in vivo, male SD rats
[5] = microsomes
[6] = rat, microsomes
[7] = read-out: cytotoxicity IC50; cited from earlier work
[8] = mouse, microsomes
[9] = Systemic PK after oral administration in rats; type: in vivo; details: plasma, oral 25 mg/kg, male SD rats
[10] = In vitro metabolism in mouse liver microsomes; details: mouse (C57BL/6) liver microsomes
ULK1 = details: read-out: IC50 ULK1; kinase inhibition assays; cited from earlier work
AMPK = details: greater potency than Compound C; cited from earlier work
[11] = cited from earlier work; remark: listed apart in the source
[12] = orthotopically implanted C6 glioma, rats; cited from earlier work
[13] = brain ECF, i.p. 25 mg/kg, male SD rats
[14] = i.p. 25 mg/kg, male SD rats, 25 mg/kg
[15] = plasma unbound, i.p. 25 mg/kg, male SD rats
[16] = plasma, i.p. 25 mg/kg, male SD rats
[17] = plasma, i.p. 25 mg/kg, male SD rats, 25 mg/kg

For `Cn1nnc2c(C(N)=O)ncn2c1=O` [temozolomide], the elimination half-life [1] is listed as “approximately 2 h”.

With `CNC(=O)c1ccccc1Oc1nc(Nc2cc(OC)c(OC)c(OC)c2)ncc1Br` [SBI-0206965] the T1/2 [2] was 9.63 min, the T1/2 [3] was 16.5 min and the AUC0-inf [4, 13] was 783.67 ± 494.92 ng·h/mL. For the same compound, the “AUC0–5” value [4, 13] was 660.81 ± 464.32 ng·h/mL, the Tmax [4, 13] was 39 ± 12 min and the Cmax ([4]; brain ECF, i.p. 25 mg/kg, male SD rats, 25 mg/kg) was 358 ng/mL and 360 ng/mL and 358.33 ± 205.39 ng/mL. The “AUC0–5 ratio (brain ECF/plasma unbound)” value [4, 14] was […], the “Cmax ratio (brain ECF/plasma unbound)” value [4, 14] was […] and the “time to plasma and brain ECF peak levels” value ([4]; plasma and brain ECF, summary in abstract) was 0.25 to 0.65 h. For the same compound, the Cmax ([4]; plasma unbound (corrected for protein binding), i.p. 25 mg/kg, male SD rats) was 615.03 ± 173.65 ng/mL, the AUC0-inf [4, 15] was 798.89 ± 387.87 ng·h/mL and the “AUC0–5” value [4, 15] was 736.63 ± 358.26 ng·h/mL. For the same compound, the AUC0-inf [4, 16] was 4549.50 ± 2208.84 ng·h/mL, the “AUC0–5” value [4, 16] was 4194.92 ± 2040.20 ng·h/mL and the Tmax [4, 16] was 15 min. The Cmax [4, 17] was 3502 ng/mL and 3502.42 ± 988.90 ng/mL, the T1/2 [4, 17] was 63.6 ± 42 min and the “time to peak plasma concentration” value ([4]; plasma, i.p. 25 mg/kg, rats) was 15 min. The “brain partitioning (ratio of Cmax and AUC in brain ECF to unbound plasma)” value ([4]; rats, plasma corrected for protein binding) was […], the Cmax ([4]; read-out: brain ECF Cmax, brain ECF, i.p. 25 mg/kg, rats) was 750 nM and the elimination half-life ([4]; summary in abstract) was 60 to 120 min. For the same compound, the “CLint, app” value ([5]; human) was 71.96 µL/min/mg, the “CLint, scaled (estimated in-vitro hepatic intrinsic clearance)” value [5] was 68 mL/min/kg body weight and the “CLint, app” value [6] was 42 µL/min/mg. For the same compound, the IC50 [7] was 5000 to 10000 nM, the “CLint, app” value [8] was 111.06 µL/min/mg and the AUC0-inf [9] was 703.74 ± 222.82 ng·h/mL. For the same compound, the “AUC0–5” value [9] was 666.71 ± 215.16 ng·h/mL, the Cmax [9] was 539.06 ± 219.94 ng/mL and the Tmax ([9]; non-compartmental analysis) was 15 min. The T1/2 ([9]; 25 mg/kg) was […], the T1/2 [10] was 6.24 min and the IC50 (ULK1) was […]. For the same compound, the “AMPK inhibition potency relative to Compound C” value (AMPK) was 40 fold and the logP [11] was 3.8.

For `N#Cc1ccc(C(c2ccc(C#N)cc2)n2cncn2)cc1` [letrozole], the “tumoral uptake relative to normal brain” value [12] is given as “two-fold higher”.
